# Experimental data: US20120328536A1, “Taste Improving Substances” (QUEST INTERNATIONAL SERVICES B.V., priority 2006, published 2012)
# Legend:
# [1] = Tasting of Odol mouthwater by a professional panel; details: 50 ppm in Odol mouthwater
# Experimental: Commercially available Odol mouthwater (GlaxoSmithKline) was obtained from a local pharmacy and 4 solutions were prepared.
# To a first sample (sample A), 50 ppm of N-(2-hydroxyethyl) 5-hydroxyhexanoyl amide (as prepared in example 1) was added. Samples A was tasted by a professional panel and compared with the mouthwater without added N-(2-hydroxyethyl) 5-hydroxyhexanoyl amide.
# [2] = Tasting of menthol fondant by a professional panel; details: 50 ppm in fondant with 2500 ppm menthol
# Experimental: Two samples of fondant were prepared by mixing 65 Fondacreme (ex Belgosuc NV Belgium) with 35% sugar syrup (67° Brix). 2500 Ppm menthol was added as a 50% solution in propylene glycol. To a first sample (sample A), 50 ppm of N-(2-hydroxyethyl) 5-hydroxyhexanoyl amide (as prepared in example 1) was added. The second sample was the reference sample. The Samples were tasted by a professional panel.
# [3] = Tasting of toothpaste by a professional panel; details: 50 ppm in commercial toothpaste
# Experimental: Commercially available toothpaste was obtained from a local pharmacy and 4 samples of paste were prepared.
# To a first sample (sample A), 50 ppm of N-(2-hydroxyethyl) 5-hydroxyhexanoyl amide (as prepared in example 1) was added and homogenized. Samples A was tasted by a professional panel and compared with the toothpaste without added N-(2-hydroxyethyl) 5-hydroxyhexanoyl amide.
# [4] = Tasting of 3% alcohol in water by a professional panel; details: 50 ppm in 3% alcohol in water
# Experimental: (§1) Two solutions of 3% alcohol in water were prepared. To one sample (sample A), 50 ppm of N-(2-hydroxyethyl) 5-hydroxyhexanoyl amide (as prepared in example 1) was added. The other sample was used as the reference sample. Both samples were tasted by a professional panel.
# [5] = Tasting of NaCl/MSG/pepper oleoresin solution by a professional panel; details: 50 ppm in 0.6% NaCl, 0.03% MSG, 4 ppm pepper oleoresin
# Experimental: as §1, with “0.6% NaCl and 0.03% MSG and 4 ppm pepper oleoresin (ex Warner Jenkinson, St Louis, USA)” for “3% alcohol in water”, “reference.” for “reference sample.”
substance,measurement,setting,value
N-(2-hydroxyethyl) 5-hydroxyhexanoyl amide,cooling in the oral cavity,[1],more aggressive cooling in the whole oral cavity
same,initial cooling and mouth-coating,[1],more initial cooling and more mouth-coating
same,overall impact compared with mouthwater without the amide,[1],stronger overall impact
same,cooling compared with the reference sample,[2],more intense cooling than the reference sample
same,onset and location of the cooling effect,[2],its effect is immediate and through the whole oral cavity
same,cooling in the oral cavity,[3],more aggressive cooling in the whole oral cavity
same,initial cooling and mouth-coating,[3],more initial cooling and more mouth-coating
same,overall impact compared with the reference sample,[3],stronger overall impact
same,alcohol impression compared to the reference sample,[4],alcohol-boosting effect
same,ethanol water mixture that the sample tasted like,[4],5-6%
same,after-taste compared to the reference sample,[5],"more a hot, tingling after-taste"
same,initial hotness compared to the reference sample,[5],initial hotness was increased
